For the compound `*/C=C(/*)c1ccc(-n2c(=O)c3cc4c(=O)n(-c5ccc(C#C)cc5)c(=O)c4cc3c2=O)cc1` (repeat unit), the glass transition temperature was 420.00 °C. The result for `*C(=O)Nc1cccc(NC(=O)c2ccc(-c3nc4cc(*)ccc4[nH]3)cc2)c1` (repeat unit) reads 325.00 °C; that for `*C(=O)Nc1cccc(NC(=O)c2ccc3c(c2)C(=O)N(c2ccc(-c4sc(-c5ccc(N6C(=O)c7ccc(*)cc7C6=O)cc5)c(-c5ccccc5)c4-c4ccccc4)cc2)C3=O)c1` (repeat unit), 334.00 °C; that for `*C(=O)Nc1cccc(NC(=O)c2ccc3c(c2)C(=O)N(c2ccc(S(=O)(=O)c4ccc(N5C(=O)c6ccc(*)cc6C5=O)cc4)cc2)C3=O)c1` (repeat unit), 311.00 °C. Turning to `*C(=O)Nc1cccc(P(=O)(c2ccccc2)c2cccc(NC(=O)c3ccc4c(c3)C(=O)N(c3cccc(P(=O)(c5ccccc5)c5cccc(N6C(=O)c7ccc(*)cc7C6=O)c5)c3)C4=O)c2)c1` (repeat unit), the glass transition temperature was 206.00 °C. Regarding `*C(=O)Nc1cccc2c(NC(=O)c3ccc4c(c3)C(=O)N(c3ccc(Oc5cccc6c(N7C(=O)c8ccc(*)cc8C7=O)cccc56)cc3)C4=O)cccc12` (repeat unit), the glass transition temperature was found to be 299.00 °C. Consider `*C(=O)c1ccc(N(*)CCC)cc1` (repeat unit), for which the glass transition temperature worked out at 136.00 °C.

`*C(=O)c1ccc(N(*)CCCC)cc1` (repeat unit) gave a glass transition temperature of 124.00 °C.

Compound `*C(=O)c1ccc2c(c1)C(=O)N(c1ccc(C(=O)N(C)c3ccc(N4C(=O)c5ccc(*)cc5C4=O)cc3)cc1)C2=O` (repeat unit) yielded a glass transition temperature of 313.00 °C. Compound `*C(=O)c1ccc2c(c1)C(=O)N(c1ccc(C(=O)Nc3cccc(N4C(=O)c5ccc(*)cc5C4=O)c3)cc1)C2=O` (repeat unit) displayed a glass transition temperature of 311.00 °C. The result for `*C(=O)c1ccc2c(c1)C(=O)N(c1ccc(C(=O)c3ccc(Cc4ccc(C(=O)c5ccc(N6C(=O)c7ccc(*)cc7C6=O)cc5)cc4)cc3)cc1)C2=O` (repeat unit) reads 285.50 °C. In turn, `*C(=O)c1ccc2c(c1)C(=O)N(c1cccc(C(=O)Nc3cccc(N4C(=O)c5ccc(*)cc5C4=O)c3)c1)C2=O` (repeat unit) yielded a glass transition temperature of 287.00 °C. The result for `*C(=O)c1ccc2c(c1)C(=O)N(c1cccc(Cc3ccc(C(=O)c4ccc(N5C(=O)c6ccc(*)cc6C5=O)cc4)cc3)c1)C2=O` (repeat unit) reads 254.00 °C; that for `*C(=O)c1ccc2c(c1)C(=O)N(c1cccc(NC(=O)c3cccc(C(=O)Nc4cccc(N5C(=O)c6ccc(*)cc6C5=O)c4)c3)c1)C2=O` (repeat unit), 204.00 °C. The value for `*CCCCCC(=O)Oc1ccc(OC(=O)CCCCCn2c(=O)c3cc4c(=O)n(*)c(=O)c4cc3c2=O)c(C)c1` (repeat unit) was 78.00 °C; that for `*CCCCCOc1ccc(C(=O)OC(=O)c2ccc(O*)cc2)cc1` (repeat unit) was 53.00 °C; that for `*CCOCCOCCOc1cccc(NC(=O)c2ccc(C(=O)Nc3cccc(O*)c3)cc2)c1` (repeat unit) was 116.00 °C. The result for `*CCOCCOc1ccc(C(=O)OC(=O)c2ccc(O*)cc2)cc1` (repeat unit) reads 41.00 °C; that for `*CCOc1ccc(C(=O)OC(=O)c2ccc(O*)cc2)cc1` (repeat unit), 45.00 °C. The compound `*COCOc1ccc(C(=O)OC(=O)c2ccc(O*)cc2)cc1` (repeat unit) gave a glass transition temperature of 57.00 °C.

As to `*COc1ccc(C(=O)OC(=O)c2ccc(O*)cc2)cc1` (repeat unit), the glass transition temperature was determined as 84.00 °C.

In the case of `*Nc1cccc(NC(=O)c2cc(C(*)=O)cc(S(=O)(=O)c3ccccc3)c2)c1` (repeat unit), the glass transition temperature was found to be 277.00 °C. For `*Nc1cccc(NC(=O)c2cccc(C(*)=O)c2)c1` (repeat unit), the glass transition temperature is 275.00 °C. Take `*Nc1cccc2c(NC(=O)c3cccc(C(*)=O)c3)cccc12` (repeat unit): the glass transition temperature came to 325.00 °C. The result for `*Nc1cnc(*)s1` (repeat unit) reads 139.00 °C; that for `*OC(=O)c1ccc(Cc2ccc(C(*)=O)cc2)cc1` (repeat unit), 122.00 °C. The value for `*OC1C(C)(C)C(OC(=O)C2CCC(C(*)=O)CC2)C1(C)C` (repeat unit) was 169.00 °C; that for `*[O][Sn]([CH2]CCC)([CH2]CCC)[O]C(=O)/C=C/C(*)=O` (repeat unit) was 186.00 °C; that for `*[O][Sn]([CH2]CCC)([CH2]CCC)[O]C(=O)c1ccc(C(*)=O)cc1` (repeat unit) was 315.00 °C. Compound `*Oc1c(C)cc(C(C)(C)c2cc(C)c(OC(*)=O)c(Cl)c2)cc1Cl` (repeat unit) came in with a glass transition temperature of 154.00 °C. For `*Oc1cc(C(C)(C)c2ccccc2)c(OC(=O)c2ccc(C(*)=O)cc2)cc1C(C)(C)c1ccccc1` (repeat unit), the glass transition temperature worked out at 170.00 °C. Compound `*Oc1cc(OC(=O)c2ccc(C(*)=O)cc2)cc(C(=O)OCCN(CC)c2ccc(/N=N/c3ccc([N+](=O)[O-])cc3)cc2)c1` (repeat unit) yielded a glass transition temperature of 130.00 °C.

For `*Oc1cc(OC(=O)c2ccc(OC)cc2)c(OC(=O)CCCC(*)=O)cc1OC(=O)c1ccc(OC)cc1` (repeat unit), the glass transition temperature amounted to 88.00 °C. The result for `*Oc1cc(OC(=O)c2ccc(OC)cc2)c(OC(=O)CCCCCCCCCCCCCCC(*)=O)cc1OC(=O)c1ccc(OC)cc1` (repeat unit) reads 33.00 °C. Take `*Oc1cc(OC(=O)c2ccc(OCC)cc2)c(OC(=O)CCCCCCCCCCCCCCC(*)=O)cc1OC(=O)c1ccc(OCC)cc1` (repeat unit): the glass transition temperature was 31.00 °C. The value for `*Oc1cc(OC(=O)c2ccc(OCCC)cc2)c(OC(=O)CCCC(*)=O)cc1OC(=O)c1ccc(OCCC)cc1` (repeat unit) was 72.00 °C; that for `*Oc1cc(OC(=O)c2ccc(OCCC)cc2)c(OC(=O)CCCCCCCCCCCCCCC(*)=O)cc1OC(=O)c1ccc(OCCC)cc1` (repeat unit) was 18.00 °C; that for `*Oc1cc(OC(=O)c2ccc(OCCCC)cc2)c(OC(=O)CCCC(*)=O)cc1OC(=O)c1ccc(OCCCC)cc1` (repeat unit) was 59.00 °C. The value for `*Oc1cc(OC(=O)c2ccc(OCCCC)cc2)c(OC(=O)CCCCCCCC(*)=O)cc1OC(=O)c1ccc(OCCCC)cc1` (repeat unit) was 38.00 °C.

As to `*Oc1cc(OC(=O)c2ccc(OCCCCCCCCCCCC)cc2)c(OC(=O)CCCC(*)=O)cc1OC(=O)c1ccc(OCCCCCCCCCCCC)cc1` (repeat unit), the glass transition temperature was 23.00 °C. As to `*Oc1cc(OCCOC)c(OC(=O)c2ccc(C(*)=O)cc2-c2ccccc2)cc1OCCOC` (repeat unit), the glass transition temperature is 92.00 °C. The value for `*Oc1ccc(-c2ccc(OC(=O)c3ccc(-c4ccc(C(*)=O)cc4C(F)(F)F)c(C(F)(F)F)c3)cc2C(=O)OCCCCCCCCCCCOc2ccc(-c3ccc(C#N)cc3)cc2)c(C(=O)OCCCCCCCCCCCOc2ccc(-c3ccc(C#N)cc3)cc2)c1` (repeat unit) was 50.00 °C; that for `*Oc1ccc(C(=O)c2cccc(NC(=O)c3ccc(C(=O)Nc4cccc(C(=O)c5ccc(*)cc5)c4)cc3)c2)cc1` (repeat unit) was 189.00 °C. In turn, `*Oc1ccc(C(=O)c2cccc(NC(=O)c3cccc(C(=O)Nc4cccc(C(=O)c5ccc(*)cc5)c4)c3)c2)cc1` (repeat unit) came in with a glass transition temperature of 191.00 °C.

The compound `*Oc1ccc(OC(=O)c2cc(OCCCc3ccccc3)c(C(*)=O)cc2OCCCc2ccccc2)cc1C` (repeat unit) registered a glass transition temperature of 91.00 °C. The result for `*Oc1ccc(OC(=O)c2ccc(-c3ccc(C(*)=O)cc3)cc2-c2ccccc2)cc1C` (repeat unit) reads 133.00 °C.

In turn, `*Oc1ccc(OC(=O)c2ccc(C(*)=O)cc2Sc2ccccc2)cc1C` (repeat unit) displayed a glass transition temperature of 130.00 °C. The value for `*Oc1ccc(OC(=O)c2ccc(OCCCCCCOc3ccc(C(*)=O)cc3)cc2)cc1/N=N/c1ccc(C#N)cc1` (repeat unit) was 98.00 °C; that for `*Oc1ccc(Oc2ccc(C(=O)c3cccc(NC(=O)c4ccc(C(=O)Nc5cccc(C(=O)c6ccc(*)cc6)c5)cc4)c3)cc2)cc1` (repeat unit) was 210.00 °C. The compound `*Sc1ccc(C(=O)c2ccc(C(c3ccc(C(=O)c4ccc(*)cc4)cc3)(C(F)(F)F)C(F)(F)F)cc2)cc1` (repeat unit) gave a glass transition temperature of 175.00 °C. The result for `*c1ccc(-c2cc(-c3ccc(-c4ccccc4)cc3)cc(-c3ccc(N4C(=O)c5ccc(NC(=O)Nc6cccc7c(NC(=O)Nc8ccc9c(c8)C(=O)N(*)C9=O)cccc67)cc5C4=O)cc3)n2)cc1` (repeat unit) reads 254.00 °C.

For the compound `*c1ccc(C(=O)Nc2cccc(-n3c(=O)c4cc5c(=O)n(*)c(=O)c5cc4c3=O)c2)cc1` (repeat unit), the glass transition temperature is 390.00 °C. The value for `*c1ccc(C(=O)Nc2cccc(Oc3ccc(S(=O)(=O)c4ccc(Oc5cccc(NC(=O)c6ccc(N7C(=O)c8ccc(-c9cccc%10c9C(=O)N(*)C%10=O)cc8C7=O)cc6)c5)cc4)cc3)c2)cc1` (repeat unit) was 241.00 °C. In turn, `*c1ccc(C(=O)Nc2cccc(S(=O)(=O)c3cccc(NC(=O)c4ccc(N5C(=O)c6ccc(-c7ccc8c(c7)C(=O)N(*)C8=O)cc6C5=O)cc4)c3)c2)cc1` (repeat unit) yielded a glass transition temperature of 256.00 °C. The result for `*c1ccc(C(=O)c2ccc(N3C(=O)c4ccc(Oc5ccc(Oc6ccc7c(c6)C(=O)N(*)C7=O)cc5)cc4C3=O)cc2)cc1` (repeat unit) reads 268.00 °C; that for `*c1ccc(Oc2cccc(NC(=O)c3cc(C(=O)Nc4cccc(Oc5ccc(-c6nnc(*)o6)cc5)c4)cc(N4C(=O)c5ccccc5C4=O)c3)c2)cc1` (repeat unit), 245.00 °C.

`*c1cccc(NC(=O)c2ccc(OCCOCCOc3ccc(C(=O)Nc4ccc5[nH]c(*)nc5c4)cc3)cc2)c1` (repeat unit) registered a glass transition temperature of 215.00 °C.

These data come from the PolyMetriX glass transition set.
